Measured values published in patent publication US20240057591A1, “ANTIMICROBIAL WET WIPES” (Kimberly-Clark Worldwide, Inc., priority 2021, published 2024).
Marks after values point to notes of the source that are not given here.

Legend:
[1] = test system: Burkholderia cepacia ATCC 25416; experiment: Reduction of bacterial load by continuous addition of CO2, plate count after contact time; assay type: cell-based; details: n = 2
Protocol: Each microbe was grown in specified growth conditions (Table 7) using 40 mL of broth media in a sterile 250 mL bottle shaken at 100 RPM. Each microbe was subcultured from broth culture to an agar plate and incubated in specified growth conditions (Table 7). […] 20 mL of reverse osmosis water solution with bacteria was dispensed to a 25 mL hydrothermal synthesis autoclave reactor vessel (25 mL total volume vessel) attached to a continuous CO2 delivery system. The vessels were left connected to the CO2 delivery system at specific contact times at room temperature (25-27° C.). 20 mL of reverse osmosis water with bacteria and filter sterilized reverse osmosis water (no bacteria) were placed in a 150 mL sterile plastic bottle (untreated controls). The untreated controls were left for the same contact time at room temperature (25-27° C.) as CO2 treated vessels. Each microorganism was plated on specified agar media (Table 7) to enumerate bacteria after contact period. Tables 8-10 show the bacterial load reduction achieved after continuous addition of pressurized gas comprising CO2 to contaminated reverse osmosis water or a contaminated solution of reverse osmosis water and Triton X-100.

[2] = pH measurements of preservative free wet wipe formulation after addition of CO2 and exposure to 1 atm (FIG. 5); assay type: physicochemical
Protocol: FIG. 5 is an exemplary embodiment depicting a graph of pH measurements of 100 mL of preservative free wet wipe formulation after addition of 8.2 g of CO2, and subsequent exposure to 1 atm (20° C.) in accordance with the present disclosure.

[3] = test system: Burkholderia cepacia (ATCC 25416); experiment: Reduction of bacterial load by adding CO2 in a pressurized vessel (whipped cream dispenser), plate count after 72 hr; assay type: cell-based; details: for Recovered Bacteria, Average CFU/mL, With CO2: 72 hr, 25° C., n = 3
Protocol: Burkholderia cepacia (ATCC 25416) was grown overnight in 40 mL trypticase soy broth in 250 mL bottle shaken at 100 RPM at 30° C. […] 100 mL of either solution were placed in a whipped cream dispenser (670 mL total volume container), and then different amounts of carbon dioxide (CO2) were injected into the container.
100 mL of each solution were then placed in a 150 mL sterile plastic bottle (untreated control). Both samples were placed on a wrist action shaker for 2 hr at 100 rpm at room temperature (25° C.), and then placed on an orbital shaker for 70 hr at 100 rpm at room temperature (25° C.). The total time each sample was at room temperature (25° C.) was 72 hr. After 72 hr, each sample was plated on trypticase soy agar to enumerate bacterial growth after contact period.

[4] = test system: Candida albicans ATCC 10231; experiment: Reduction of microorganism load by continuous addition of CO2, plate count after contact time; assay type: cell-based; details: 300 psi CO2 continuously, reverse osmosis water, n = 2
Protocol: (§1) Each microbe was grown in specified growth conditions (Table 7) using 40 mL of broth media in a sterile 250 mL bottle shaken at 100 RPM. Each microbe was subcultured from broth culture to an agar plate and incubated in specified growth conditions (Table 7). 100 μL of bacterial or fungal suspension matching the turbidity of a 0.5 or 1 MacFarland Standard were added to 100 mL of filter-sterilized reverse osmosis water (final concentration approximately 1×10^6 or 5×10^1 CFU/mL). 20 mL of reverse osmosis water solution with bacteria was dispensed to a 25 mL hydrothermal synthesis autoclave reactor vessel (25 mL total volume vessel) attached to a continuous CO2 delivery system. The vessels were left connected to the CO2 delivery system at specific contact times at room temperature (25-27° C.). 20 mL of reverse osmosis water with bacteria and filter sterilized reverse osmosis water (no bacteria) were placed in a 150 mL sterile plastic bottle (untreated controls). The untreated controls were left for the same contact time at room temperature (25-27° C.) as CO2 treated vessels. Each microorganism was plated on specified agar media (Table 7) to enumerate bacteria after contact period. Tables 8-10 show the bacterial load reduction achieved after continuous addition of pressurized gas comprising CO2 to contaminated reverse osmosis water or a contaminated solution of reverse osmosis water and Triton X-100.

[5] = test system: Pseudomonas aeruginosa ATCC 9027; experiment: as above; assay type: cell-based; details: 300 psi CO2 continuously, reverse osmosis water, n = 2
Protocol: as §1

[6] = test system: Staphylococcus aureus ATCC 6538; experiment: as above; assay type: cell-based; details: 300 psi CO2 continuously, reverse osmosis water, n = 2
Protocol: as §1

[7] = test system: Escherichia coli ATCC 8739; experiment: as above; assay type: cell-based; details: 300 psi CO2 continuously, reverse osmosis water, n = 2
Protocol: as §1

In the case of `O=C=O` [CO2, carbon dioxide], the “Average Recovered CFU/mL, With CO2” value ([1]; 100 psi CO2 continuously, reverse osmosis water and 0.2% (v/v) Triton X-100, approximately 1.0 × 10^4 inoculum, 15 minutes) is reported as 2.1 × 10^3 CFU/mL, the “Average Recovered CFU/mL, With CO2” value ([1]; 100 psi CO2 continuously, reverse osmosis water and 0.2% (v/v) Triton X-100, approximately 1.0 × 10^4 inoculum, 30 minutes) is reported as 1.2 × 10^3 CFU/mL and the “Average Recovered CFU/mL, With CO2” value ([1]; 100 psi CO2 continuously, reverse osmosis water and 0.2% (v/v) Triton X-100, approximately 1.0 × 10^4 inoculum, 60 minutes) is reported as 6.3 × 10^2 CFU/mL. For the same molecule, the “Average Recovered CFU/mL (Standard Deviation), With CO2” value ([1]; 300 psi CO2 continuously, 20 mL reverse osmosis water, 0.5 hours) was 5.0 × 10^5 (1.0 × 10^5) CFU/mL, the “Average Recovered CFU/mL (Standard Deviation), With CO2” value ([1]; 300 psi CO2 continuously, 20 mL reverse osmosis water, 1 hour) was 4.5 × 10^5 (2.5 × 10^5) CFU/mL and the “Average Recovered CFU/mL (Standard Deviation), With CO2” value ([1]; 300 psi CO2 continuously, 20 mL reverse osmosis water, 1.5 hours) was 5.0 × 10^5 (2.0 × 10^5) CFU/mL. For the same molecule, the “Average Recovered CFU/mL (Standard Deviation), With CO2” value ([1]; 300 psi CO2 continuously, 20 mL reverse osmosis water, 2 hours) was 3.1 × 10^4 (7.0 × 10^3) CFU/mL, the “Average Recovered CFU/mL (Standard Deviation), With CO2” value ([1]; 300 psi CO2 continuously, 20 mL reverse osmosis water, 2.5 hours) was 8.0 × 10^3 (2.0 × 10^3) CFU/mL and the “Average Recovered CFU/mL (Standard Deviation), With CO2” value ([1]; 300 psi CO2 continuously, 20 mL reverse osmosis water, 3 hours) was <1 (n/a) CFU/mL. For the same molecule, the “Average Recovered CFU/mL (Standard Deviation), With CO2” value ([1]; 300 psi CO2 continuously, 20 mL reverse osmosis water, 6 hours) was <1 (n/a) CFU/mL, the “Average Recovered CFU/mL (Standard Deviation), With CO2” value ([1]; 300 psi CO2 continuously, 20 mL reverse osmosis water, 24 hours) was <1 (n/a) CFU/mL and the “Average Recovered CFU/mL (Standard Deviation), With CO2” value ([1]; Table 9: 100 psi CO2 (approx. 0.231 mol/L), reverse osmosis water, 2 hours) was 2.3 × 10^4 (1.0 × CFU/mL. For the same molecule, the “Average Recovered CFU/mL (Standard Deviation), With CO2” value ([1]; Table 9: 100 psi CO2 (approx. 0.231 mol/L), reverse osmosis water, 4 hours) was 1.2 × 10^4 (4.0 × CFU/mL, the “Average Recovered CFU/mL (Standard Deviation), With CO2” value ([1]; Table 9: 100 psi CO2 (approx. 0.231 mol/L), reverse osmosis water, 6 hours) was 1.2 × 10^4 (3.5 × CFU/mL and the “Average Recovered CFU/mL (Standard Deviation), With CO2” value ([1]; Table 9: 200 psi CO2 (approx. 0.463 mol/L), reverse osmosis water, 2 hours) was 1.2 × 10^3 (1.5 × CFU/mL. The “Average Recovered CFU/mL (Standard Deviation), With CO2” value ([1]; Table 9: 200 psi CO2 (approx. 0.463 mol/L), reverse osmosis water, 4 hours) was 1.0 × 10^2 (1.0 × CFU/mL, the “Average Recovered CFU/mL (Standard Deviation), With CO2” value ([1]; Table 9: 200 psi CO2 (approx. 0.463 mol/L), reverse osmosis water, 6 hours) was 1.4 × 10^1 (<10) CFU/mL and the “Average Recovered CFU/mL (Standard Deviation), With CO2” value ([1]; Table 9: 300 psi CO2 (approx. 0.694 mol/L), reverse osmosis water, 2 hours) was 9.0 × 10^2 (1.0 × CFU/mL. For the same molecule, the “Average Recovered CFU/mL (Standard Deviation), With CO2” value ([1]; Table 9: 300 psi CO2 (approx. 0.694 mol/L), reverse osmosis water, 4 hours) was 5.0 × 10^1 (5.0 × CFU/mL, the “Average Recovered CFU/mL (Standard Deviation), With CO2” value ([1]; Table 9: 300 psi CO2 (approx. 0.694 mol/L), reverse osmosis water, 6 hours) was <10 (n/a) CFU/mL and the “Average Recovered CFU/mL, With CO2” value ([1]; Table 10: 300 psi CO2 continuously, reverse osmosis water, 2 Hours) was 1.3 × 10^3 CFU/mL. For the same molecule, the “Average Recovered CFU/mL, With CO2” value ([1]; Table 10: 300 psi CO2 continuously, reverse osmosis water, 4 Hours) was 2.5 × 10^1 CFU/mL, the “Average Recovered CFU/mL, With CO2” value ([1]; Table 10: 300 psi CO2 continuously, reverse osmosis water, 6 Hours) was less than 10 CFU/mL and the “Reduction of pH of wet wipe formulation” value ([2]; 100 mL preservative free wet wipe formulation after addition of 8.2 g of CO2 (FIG. 5)) was “approximately 0.20 pH units”. The “Dissipation of solubilized CO2 from wet wipe formulation” value ([2]; after exposure to atmospheric conditions (1 atm, 20° C.; FIG. 5)) was “quickly dissipated”, the “Recovered Bacteria, Average CFU/mL, With CO2” value (from here on “Recovered Bacteria”) ([3]; 8.2 g of CO2 to 100 mL preservative-free wet wipe formulation, approximately 1 × 10^6 CFU/mL) was less than 10 CFU/mL and the “Recovered Bacteria” value ([3]; 8.2 g of CO2 to 100 mL reverse osmosis water, approximately 1 × 10^6 CFU/mL) was 1.1 × 10^3 CFU/mL. The “Recovered Bacteria” value ([3]; 8.2 g of CO2 to 100 mL reverse osmosis water, approximately 5 × 10^1 CFU/mL) was less than 10 CFU/mL, the “Recovered Bacteria” value ([3]; 16.0 g of CO2 to 100 mL reverse osmosis water, approximately 1 × 10^5 CFU/mL) was less than 10 CFU/mL and the “Recovered Bacteria” value ([3]; 23.7 g of CO2 to 100 mL reverse osmosis water, approximately 1 × 10^5 CFU/mL) was less than 10 CFU/mL. For the same molecule, the “Microbial growth compared to no added CO2” value ([3]; pressurized gas comprising carbon dioxide added to contaminated preservative-free wet wipe formulation) was “greatly reduced microbial growth”, the “Microbial growth compared to no added CO2” value ([3]; pressurized gas comprising carbon dioxide added to contaminated water) was “greatly reduced microbial growth” and the “Average Recovered CFU/mL, With CO2” value ([4]; 2 Hours) was 5.3 × 10^2 CFU/mL. For the same molecule, the “Average Recovered CFU/mL, With CO2” value ([4]; 4 Hours) was 1.0 × 10^2 CFU/mL, the “Average Recovered CFU/mL, With CO2” value ([4]; 6 Hours) was less than 10 CFU/mL and the “Average Recovered CFU/mL, With CO2” value ([5]; 2 Hours) was 3.5 × 10^2 CFU/mL. For the same molecule, the “Average Recovered CFU/mL, With CO2” value ([5]; 4 Hours) was less than 10 CFU/mL, the “Average Recovered CFU/mL, With CO2” value ([5]; 6 Hours) was less than 10 CFU/mL and the “Average Recovered CFU/mL, With CO2” value ([6]; 2 Hours) was 6.0 × 10^2 CFU/mL. For the same molecule, the “Average Recovered CFU/mL, With CO2” value ([6]; 4 Hours) was 1.3 × 10^2 CFU/mL, the “Average Recovered CFU/mL, With CO2” value ([6]; 6 Hours) was less than 10 CFU/mL and the “Average Recovered CFU/mL, With CO2” value ([7]; 2 Hours) was 1.0 × 10^3 CFU/mL. For the same molecule, the “Average Recovered CFU/mL, With CO2” value ([7]; 4 Hours) was 2.5 × 10^2 CFU/mL and the “Average Recovered CFU/mL, With CO2” value ([7]; 6 Hours) was less than 10 CFU/mL.
